Assay results as given in the supplement of paper PMC12698765.
Where a name gives a salt, the structure may show the parent alone. ± gives the standard deviation of the averaged measurements.

What was measured:
[1] = system: 409B2 hiPSC (iCRISPR Cas9, FRMD7 editing); assay: NHEJ-attributed indel frequency relative to solvent control (fold (ratio to mock)); higher = more NHEJ outcomes
Method: (§1)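 Subset screen of 55 drugs tested at 5 concentrations around the effective screening dose, in 409B2 iCRISPR Cas9 hiPSCs editing FRMD7 with a ssDNA donor. Drugs were applied for 24 h. Viability was read by resazurin and editing outcomes by amplicon sequencing (HDR, NHEJ <2 bp microhomology, MMEJ ≥2 bp microhomology). Values are relative to solvent mock controls; two biological replicates.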

[2] = system: 409B2 hiPSC (iCRISPR Cas9, FRMD7 editing); assay: MMEJ-attributed deletion frequency relative to solvent control (fold (ratio to mock)); higher = more MMEJ outcomes
Method: as §1

[3] = system: 409B2 hiPSC (iCRISPR Cas9, FRMD7 editing); assay: cell survival relative to solvent control (fold (ratio to mock)); higher = more surviving cells
Method: as §1

[4] = system: 409B2 hiPSC (iCRISPR Cas9, FRMD7 editing); assay: HDR (precise edit) frequency relative to solvent control (fold (ratio to mock)); higher = more homology-directed repair outcomes
Method: as §1

| Structure (SMILES) | NHEJ-attributed indel frequency ([1]; 200 nM) | NHEJ-attributed indel frequency ([1]; 500 nM) | NHEJ-attributed indel frequency ([1]; 1000 nM) | NHEJ-attributed indel frequency ([1]; 2000 nM) | NHEJ-attributed indel frequency ([1]; 5000 nM) | MMEJ-attributed deletion frequency ([2]; 200 nM) | MMEJ-attributed deletion frequency ([2]; 500 nM) | MMEJ-attributed deletion frequency ([2]; 1000 nM) | MMEJ-attributed deletion frequency ([2]; 2000 nM) | MMEJ-attributed deletion frequency ([2]; 5000 nM) | cell survival ([3]; 200 nM) | cell survival ([3]; 500 nM) | cell survival ([3]; 1000 nM) | cell survival ([3]; 2000 nM) | cell survival ([3]; 5000 nM) | HDR ([4]; 200 nM) | HDR ([4]; 500 nM) | HDR ([4]; 1000 nM) | HDR ([4]; 2000 nM) | HDR ([4]; 5000 nM) | further results |
| --- | --- | --- | --- | --- | --- | --- | --- | --- | --- | --- | --- | --- | --- | --- | --- | --- | --- | --- | --- | --- | --- |
| Cc1c(C(C)C)c(=O)n(-c2ccccc2)n1C [Propyphenazone (4-Isopropylantipyrine)] (in DMSO) | 1.01 ± 0.013 | 0.993 ± 0.022 | 0.993 ± 0.041 | 0.995 ± 0.035 | 0.988 ± 0.014 | 0.984 ± 0.021 | 0.969 ± 0.059 | 0.881 ± 0.036 | 0.954 ± 0.091 | 0.965 ± 0.06 | 1.03 | 1.24 | 1.03 | 1.2 | 1.13 | 1.04 ± 0.021 | 1.11 ± 0.044 | 1.1 ± 0.068 | 1.07 ± 0.064 | 1.08 ± 0.031 | – |
| NCCS [2-Aminoethanethiol] (in DMSO) | 1 ± 0.022 | 1.02 ± 0.052 | – | – | – | 0.976 ± 0.074 | 1.04 ± 0.19 | – | – | – | 1.08 | 0.899 | – | – | – | 1.12 ± 0.029 | 0.949 ± 0.16 | – | – | – | NHEJ-attributed indel frequency ([1]; 20 nM): 0.979 ± 0.0017; NHEJ-attributed indel frequency ([1]; 50 nM): 1.003 ± 0.0053; NHEJ-attributed indel frequency ([1]; 100 nM): 0.9962 ± 0.0046; MMEJ-attributed deletion frequency ([2]; 20 nM): 0.917 ± 0.035; MMEJ-attributed deletion frequency ([2]; 50 nM): 0.862 ± 0.013; MMEJ-attributed deletion frequency ([2]; 100 nM): 0.932 ± 0.18; cell survival ([3]; 20 nM): 0.948; cell survival ([3]; 50 nM): 1.07; cell survival ([3]; 100 nM): 0.956; HDR ([4]; 20 nM): 1.073 ± 0.0014; HDR ([4]; 50 nM): 1.05 ± 0.08; HDR ([4]; 100 nM): 0.984 ± 0.019 |
| Cc1ccc(NC(=O)c2ccc(CN3CC[C@H](N(C)C)C3)c(C(F)(F)F)c2)cc1Nc1nccc(-c2cncnc2)n1 [Bafetinib (INNO-406)] (in DMSO) | – | – | – | 0.9931 ± 0.002 | 1.004 ± 0.0057 | – | – | – | 1.04 ± 0.012 | 0.89 ± 0.082 | – | – | – | 1.07 | 1.36 | – | – | – | 1.04 ± 0.053 | 1.066 ± 0.0049 | NHEJ-attributed indel frequency ([1]; 10000 nM): 1.06 ± 0.025; NHEJ-attributed indel frequency ([1]; 20000 nM): 1.03 ± 0.11; NHEJ-attributed indel frequency ([1]; 50000 nM): 0.525; MMEJ-attributed deletion frequency ([2]; 10000 nM): 1.13 ± 0.045; MMEJ-attributed deletion frequency ([2]; 20000 nM): 1.32 ± 0.11; MMEJ-attributed deletion frequency ([2]; 50000 nM): 0.621; cell survival ([3]; 10000 nM): 0.818; cell survival ([3]; 20000 nM): 0.096; cell survival ([3]; 50000 nM): 0.0107; HDR ([4]; 10000 nM): 1.03 ± 0.1; HDR ([4]; 20000 nM): 0.775 ± 0.27; HDR ([4]; 50000 nM): 0.282 |
| CNCC[C@H](Oc1cccc2ccccc12)c1cccs1 [Duloxetine HCl] (in DMSO) | – | – | – | 0.932 ± 0.027 | 0.986 ± 0.0019 | – | – | – | 1.09 ± 0.25 | 1.14 ± 0.069 | – | – | – | 0.92 | 1.24 | – | – | – | 1.02 ± 0.13 | 1.14 ± 0.024 | NHEJ-attributed indel frequency ([1]; 10000 nM): 0.998 ± 0.025; NHEJ-attributed indel frequency ([1]; 20000 nM): 1.029 ± 0.0059; NHEJ-attributed indel frequency ([1]; 50000 nM): 0.517 ± 0.45; MMEJ-attributed deletion frequency ([2]; 10000 nM): 1.36 ± 0.053; MMEJ-attributed deletion frequency ([2]; 20000 nM): 1.86 ± 0.036; MMEJ-attributed deletion frequency ([2]; 50000 nM): 1.42 ± 0.81; cell survival ([3]; 10000 nM): 1.18; cell survival ([3]; 20000 nM): 0.796; cell survival ([3]; 50000 nM): 0.0121; HDR ([4]; 10000 nM): 1.02 ± 0.0038; HDR ([4]; 20000 nM): 0.88 ± 0.06; HDR ([4]; 50000 nM): 0.33 ± 0.35 |
| Nc1ncnc2c1ncn2C1CC(O)C(CO)O1 (stereo not given) [2'-Deoxyadenosine monohydrate] (in DMSO) | 1.006 ± 0.008 | 1.01 ± 0.027 | – | – | – | 1.02 ± 0.036 | 1.02 ± 0.2 | – | – | – | 1.1 | 1.12 | – | – | – | 1.01 ± 0.05 | 0.958 ± 0.062 | – | – | – | NHEJ-attributed indel frequency ([1]; 20 nM): 1.01 ± 0.013; NHEJ-attributed indel frequency ([1]; 50 nM): 1.02 ± 0.015; NHEJ-attributed indel frequency ([1]; 100 nM): 1 ± 0.029; MMEJ-attributed deletion frequency ([2]; 20 nM): 0.957 ± 0.043; MMEJ-attributed deletion frequency ([2]; 50 nM): 0.99 ± 0.071; MMEJ-attributed deletion frequency ([2]; 100 nM): 0.999 ± 0.11; cell survival ([3]; 20 nM): 0.996; cell survival ([3]; 50 nM): 1.12; cell survival ([3]; 100 nM): 1; HDR ([4]; 20 nM): 1.03 ± 0.021; HDR ([4]; 50 nM): 1.02 ± 0.02; HDR ([4]; 100 nM): 1.03 ± 0.11 |
| CCCCc1oc2ccc(NS(C)(=O)=O)cc2c1C(=O)c1ccc(OCCCN(CCCC)CCCC)cc1 [Dronedarone HCl] (in DMSO) | 0.991 ± 0.011 | 1.04 ± 0.043 | 1.01 ± 0.013 | 0.958 ± 0.093 | 1.06 ± 0.092 | 0.537 ± 0.76 | 0.463 ± 0.65 | 0.895 ± 0.18 | 0.923 ± 0.16 | 1.18 ± 0.34 | 1.15 | 1.01 | 0.696 | 0.521 | 0.261 | 0.891 ± 0.2 | 0.835 ± 0.2 | 0.734 ± 0.051 | 0.513 ± 0.071 | 0.556 ± 0.012 | – |
